Values quoted from earlier work as cited in article PMC4306510 (Bioconjugate Chemistry, 2014).

Conditions: in 0.1 M aqueous NaOH

In the case of `O=C(O)c1ccc2c(c1)C(=O)OC21c2ccc(O)cc2Oc2cc(O)ccc21` [5-carboxy fluorescein], the “quantum yield of the standard” value is given as 95%.
